According to patent EP3412361A1, “METHOD FOR PREPARING PARTICULATE FORM CAESIUM-REMOVAL INORGANIC ION ADSORBENT AND PRODUCT AND APPLICATION THEREOF” (Tsinghua University, priority 2015, dated 2017):

Assay: Monolayer dispersion threshold of metal salt on silica gel by XRD diffraction peak intensity extrapolation
Format: physicochemical
Conditions: salt impregnated on silica gel at 90 °C, dried 120 °C 10 h
Procedure: Through equal volume impregnation method, silica gel pellets is impregnated with a series of different concentrations of salt solution containing M^n+ ion. The impregnated solid materials are dried in an oven to obtain a silica gel intermediate M/SiO2 with a different amounts of M salt on the surface. Based on monolayer dispersion principle of a metal salt on the surface of carrier, the monolayer dispersion threshold of various kinds of M^n+ ion salts on silica gel surface is determined by X - ray diffraction method. The value is the monolayer loading of various salts on the surface of silica gel carrier.
Further, in the step (1), it is necessary to determine monolayer dispersion threshold of M^n+ ion salt on the surface of silica gel, which may be measured by loading a series of different amounts of the M^n+ ion salt onto the surface of silica gel by the solution impregnation method followed by drying to obtain the sample to be tested.
The silica gel mass is 5-10 g, and the loading amount of M^n+ ion salt on the silica gel is 0.02g, 0.05g, 0.1g, 0.5g, 1.0g, 2.0g, 3.0g, 4.0g, 5.0g, 6.0 g per g silica gel; the ratio by volume of the M^n+ ion solution to the silica gel is 0.5-2.
The obtained samples series is subjected to X-ray diffraction (XRD) and the strongest diffraction peak intensity (y-axis) is linearly correlated with the corresponding M^n+ ion salt loading (x-axis) in which the intercept on the x-axis is the monolayer dispersion threshold.
Further, in the step (1), the impregnation process is carried out in a water bath at a temperature of 90 °C, and the mixture is continuously stirred until the liquid is completely evaporated and the solute M^n+ ion salt is fully supported on the silica gel surface.
Further, in the step (1), the silica gel intermediate M/ SiO2 is dried in an oven for 10 h at a temperature of 120 °C.
Then, 1 g of silica gel pellets were added to each beaker and the beaker was placed in a water bath at a temperature of 90 °C. In the process of evaporation of water, the mixture was being stirred with a glass rod until the water evaporated and the pellets were basically dry. The beaker was dried in an oven at 120 °C for 10 hours.
Then, 1 g of silica gel pellets were added to each beaker and the beaker was placed in a water bath at a temperature of 90 °C.

| SMILES | monolayer dispersion threshold on silica gel |
| --- | --- |
| O.O.O.O.O.O.O=[N+]([O-])[O-].O=[N+]([O-])[O-].[Co+2] [Co(NO3)2, cobalt nitrate] | 0.63 g/g |
| O=S(=O)([O-])[O-].[Cu+2] [CuSO4, copper sulfate] | 0.79 g/g |
| [Cl][Fe]([Cl])[Cl] [FeCl3, ferric chloride] | 0.43 g/g |
| CC(=O)[O-].CC(=O)[O-].O.O.[Zn+2] [Zn(AC)2, zinc acetate] | 0.18 g/g |
| O.O=[N+]([O-])[O-].O=[N+]([O-])[O-].[O]=[Zr+2] [ZrO(NO3)2] | 1.02 g/g |
